In BindingDB's records for patent US9150581 (Research Triangle Institute, 2015):

Biological target: Isoform Alpha-4-2 of Neuronal acetylcholine receptor subunit alpha-4 (Alpha-4-2) (Rattus norvegicus, UniProt P09483)
Experiment: Inhibition Assay

Sequence of Isoform Alpha-4-2 of Neuronal acetylcholine receptor subunit alpha-4 (Alpha-4-2) (P09483 as listed by the source): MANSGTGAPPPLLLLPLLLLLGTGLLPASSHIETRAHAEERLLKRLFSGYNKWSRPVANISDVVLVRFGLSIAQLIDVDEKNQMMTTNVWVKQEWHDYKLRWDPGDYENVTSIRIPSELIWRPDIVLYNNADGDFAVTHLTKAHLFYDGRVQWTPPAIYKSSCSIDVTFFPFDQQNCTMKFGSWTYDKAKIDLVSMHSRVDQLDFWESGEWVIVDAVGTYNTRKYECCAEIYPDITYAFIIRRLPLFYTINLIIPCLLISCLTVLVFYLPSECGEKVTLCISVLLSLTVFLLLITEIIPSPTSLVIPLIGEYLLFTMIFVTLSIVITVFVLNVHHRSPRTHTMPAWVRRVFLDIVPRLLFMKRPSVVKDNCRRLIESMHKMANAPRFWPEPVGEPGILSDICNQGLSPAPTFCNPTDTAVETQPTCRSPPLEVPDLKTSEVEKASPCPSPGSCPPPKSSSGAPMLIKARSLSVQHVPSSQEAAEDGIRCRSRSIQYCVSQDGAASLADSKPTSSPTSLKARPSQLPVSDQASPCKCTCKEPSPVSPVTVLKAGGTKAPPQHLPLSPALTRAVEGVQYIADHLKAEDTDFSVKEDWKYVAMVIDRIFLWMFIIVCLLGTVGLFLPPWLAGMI

Row | SMILES | Ki
1 | Fc1ncc(C2CC3CCC2N3)cc1-c1cccc(Cl)c1 (racemic) [US9150581, RTI-7527-98] | 0.073 nM
2 | Fc1ncc(C2CC3CCC2N3)cc1-c1ccccc1 (stereo not drawn) [US9150581, RTI-7527-(-)-47] | 0.26 nM
